Measurements taken from US12514859B2, “Pyrazole pyrimidine derivative and uses thereof” (Yissum Research Development Company of the Hebrew …, priority 2015, dated 2026).

How the values were obtained:
[1] = test system: p53, DNA damage response (γH2AX); assay: p53 and DNA damage response activation in RKO cells (Western blot, primary screen and dose response); type: cell-based; conditions: for DDR & p53 activity: 16 hours, Western blot, average value
Description: (§1) Primary Screen in RKO cells for compounds having typical CKIα inhibitory activity (β-catenin and p53 stabilization and histone H2AX phosphorylation; see Elyada et al, Nature 2011 Feb. 17; 470(7334):409-13; Pribluda et al, Cancer Cell 2013 Aug. 12; 24(2):242-56). RKO colorectal cells were incubated with 10 μM of each of the compounds for 16 hours at 37° C. Cells were washed with PBS and cell pellets were incubated with ice cold protein lysis buffer containing protease inhibitor cocktail (1/200; Calbiochem) and phosphatase inhibitors (20 mM p-nitrophenyl phosphate (PNPP), 20 mM β-glycerophosphate and 300 nM okadaic acid). Western blot analysis was performed by means of standard techniques. Blots were incubated with antibodies detecting β-catenin (1/2,500; BD Transduction), p53 (DO-1&1801 hybridoma mix; dilution of 1:20 of supernatants from each), CKIα (C-19; 1/1,000; Santa Cruz Biotechnology) and phospho-histoneH2AX (S139; 1/1,000; Millipore). Secondary antibodies were HRP-linked goat anti-mouse, goat anti-rabbit and rabbit anti-goat antibodies (all 1/10,000; Jackson). Blots were developed using ECL (GE Healthcare).
(§2) Active compounds were further analyzed in a dose-response experiment (FIGS. 1A and 1B). Similar to the primary screen, RKO cells were incubated with descending concentrations of each of the active compounds for 16 hours at 37° C. Cell extract isolation and Western Blot analysis were similar to the primary screen.
(§3) Table 1 provides quantified information for compounds of the invention in activation of p53 and DNA damage response (DDR) and β-catenin stabilization as an indicator of Wnt pathway activation. p53 activation was determined according to the degree of protein stabilization in several Western blot assays (Western blot examples are shown in FIGS. 1A and 1B). […] In contrast, A35 started stabilizing p53 at […], with maximal stabilization at […] (FIG. 1A, upper right panel) and thus received an average value of +++ for p53 activation.

Wnt/β-catenin = assay: β-catenin stabilization (Wnt pathway activation) in RKO cells (Western blot); type: cell-based; parameters: concentration at which β-catenin was stabilized: unit not given here; conditions: for β-Catenin activity: 16 hours, Western blot
Description: as §1, §2, §3

Row | Compound | p53 stabilization and γH2AX induction (in words) ([1]; FIG. 1A) | β-Catenin activity (Wnt/β-catenin) | concentration at which β-catenin was stabilized (Wnt/β-catenin; FIG. 1A) | DDR & p53 activity [1]
1 | Cn1ncc(-c2ccnc(NC3CCC4(CC3)NC(=O)NC4=O)n2)c1CC1CC1 (stereo not drawn) [Compound A19-4, 8-((4-(5-(cyclopropylmethyl)-1-methyl-1H-pyrazol-4-yl)pyrimidin-2-yl)amino)-1,3-diazaspiro[4.5]decane-2,4-dione] | neither stabilized p53, nor induced γH2AX | +++ (+++ indicates maximal β-catenin or p53 stabilization at >2 μM) | 2 | 
2 | Cn1ncc(-c2ccnc(NC3CCC4(CC3)COC(=O)N4)n2)c1CC1CC1 (stereo not drawn) [Compound A26, 8-((4-(5-(cyclopropylmethyl)-1-methyl-1H-pyrazol-4-yl)pyrimidin-2-yl)amino)-3-oxa-1-azaspiro[4.5]decan-2-one] |  | + (+ indicates low, yet significant activation at a compound concentration of 6 μM) |  | + (+ indicates low, yet significant activation at a compound concentration of 6 μM)
3 | N[C@H]1CC[C@H](Nc2nccc(-c3cnn(C4CCCOC4)c3CC3CC3)n2)CC1 (stereo partly drawn) [Compound A38, (1R, 4R)—N^1-(4-(5-(cyclopropylmethyl)-1-(tetrahydro-2H-pyran-3-yl)-1H-pyrazol-4-yl)pyrimidin-2-yl)cyclohexane-1,4-diamine] |  | + (+ indicates low, yet significant activation at a compound concentration of 6 μM) |  | + (+ indicates low, yet significant activation at a compound concentration of 6 μM)
4 | Cn1ncc(-c2ccnc(N[C@H]3CC[C@H](N4CCOCC4)CC3)n2)c1CC1CC1 [Compound A48, 4-(5-(cyclopropylmethyl)-1-methyl-1H-pyrazol-4-yl)-N-((1r, 4r)-4-morpholinocyclohexyl)pyrimidin-2-amine] |  | + (+ indicates low, yet significant activation at a compound concentration of 6 μM) |  | + (+ indicates low, yet significant activation at a compound concentration of 6 μM)
5 | CC(C)n1ncc(-c2ccnc(N[C@H]3CC[C@H](N)CC3)n2)c1CC1CCC1 [Compound A53, (1R,4R)—N^1-(4-(5-(cyclobutylmethyl)-1-isopropyl-1H-pyrazol-4-yl)pyrimidin-2-yl)cyclohexane-1,4-diamine] |  | + (+ indicates low, yet significant activation at a compound concentration of 6 μM) |  | + (+ indicates low, yet significant activation at a compound concentration of 6 μM)
6 | Cn1ncc(-c2nc(N[C@H]3CC[C@H](Nc4ccccc4)CC3)ncc2Cl)c1CC1CC1 [Compound A68, (1R,4R)—N^1-(5-chloro-4-(5-(cyclopropylmethyl)-1-methyl-1H-pyrazol-4-yl)pyrimidin-2-yl)-N^4-phenylcyclohexane-1,4-diamine] |  | + (+ indicates low, yet significant activation at a compound concentration of 6 μM) |  | + (+ indicates low, yet significant activation at a compound concentration of 6 μM)
7 | Cn1ncc(-c2nc(NC3CCC(NCc4cn[nH]c4)CC3)ncc2Cl)c1CC1CC1 [Compound A75, (1R,4R)—N^1-((1H-pyrazol-4-yl)methyl)-N^4-(5-chloro-4-(5-(cyclopropylmethyl)-1-methyl-1H-pyrazol-4-yl)pyrimidin-2-yl)cyclohexane-1,4-diamine] |  | +++ (+++ indicates maximal β-catenin or p53 stabilization at >2 μM) |  | +++++ (+++++ indicates maximal activation of p53 and DDR at >0.1 μM)
8 | Cn1ncc(-c2nc(NC3CCC(NCc4cn[nH]c4)CC3)ncc2F)c1CC1CC1 [Compound A85, (1R,4R)—N^1-((1H-pyrazol-4-yl)methyl)-N^4-(4-(5-(cyclopropylmethyl)-1-methyl-1H-pyrazol-4-yl)-5-fluoropyrimidin-2-yl)cyclohexane-1,4-diamine] |  | +++ (+++ indicates maximal β-catenin or p53 stabilization at >2 μM) |  | +++ (+++ indicates maximal β-catenin or p53 stabilization at >2 μM)
9 | Cn1ncc(-c2nc(NC3CCC(N)CC3)ncc2F)c1CC1CC1 [Compound A86, (1R,4R)—N^1-(4-(5-(cyclopropylmethyl)-1-methyl-1H-pyrazol-4-yl)-5-fluoropyrimidin-2-yl)cyclohexane-1,4-diamine] |  | +++ (+++ indicates maximal β-catenin or p53 stabilization at >2 μM) |  | +++++ (+++++ indicates maximal activation of p53 and DDR at >0.1 μM)
10 | Cn1ncc(-c2nc(N[C@H]3CC[C@H](NC(=O)c4cn[nH]c4)CC3)ncc2Cl)c1CC1CC1 [Compound A87, N-((1R,4R)-4-((5-chloro-4-(5-(cyclopropylmethyl)-1-methyl-1H-pyrazol-4-yl)pyrimidin-2-yl)amino)cyclohexyl)-1H-pyrazole-4-carboxamide] |  | +++ (+++ indicates maximal β-catenin or p53 stabilization at >2 μM) |  | + (+ indicates low, yet significant activation at a compound concentration of 6 μM)
